Columns and labels:
[1] = tested on: processing of electroporated OVA by M12.B6 cells; test: Inhibition of MHC-I processing of electroporated OVA; type: cell-based, mouse; settings: FIGS. 2 and 3, IL-2 secretion by T hybridoma cells
Experimental: Compounds of the invention were assayed for the ability to inhibit the processing of exogenous OVA antigen by the class I major histocompatibility pathway (MHC-I). The MCP inhibitors were applied to a functional antigen processing system that allows inclusion of the inhibitor within the antigen processing cell during exposure to antigen, followed by fixation of the processing cell. T cell hybridomas are then added to the processing cells in the absence of inhibitor to determine the expression of peptide-MHC-I complexes, which reflects antigen processing prior to fixation.
Cells were grown at 37° C. in a humidified atmosphere maintained at 5% CO2 in a standard medium: DMEM (Gibco, St. Louis, Mo.) with 10% fetal calf serum (Hyclone, Logan Utah), 5×10^-5 M 2-mercaptoethanol, antibiotics and the following supplements: L-arginine HCl (116 mg/L), L-asparagine (36 mg/L), NaHCO3 (2 g/L), sodium pyruvate (1 mM). See also Harding, C. V., (1992) Eur. J. Immunol. 22: 1865-1869. […]
Electroporation was performed with a Gibco BEL Electroporator using 0.4 cm gap cuvette chambers. […] The extent of processing, (i.e., the level of specific peptide-MHC complexes expressed) was determined by the ability of the M12.B6 cells to stimulate IL-2 secretion by B3.1 or DOBW T hybridoma cells. […]

[2] = tested on: wild-type and FALS mutant (Ala4→Val, Ile113→Thr) SOD-1 in 293 cells; test: Dose response of SOD-1 isoforms in stably transformed 293 cell lines; type: cell-based, human
Experimental: Cells were maintained in G418 selection for three weeks at which time drug selection was removed and the G418-resistant colonies of each transformed cell type were pooled for further growth. Compound 14 was utilized in these studies.
Cell lines expressing the indicated SOD-1 isoforms were incubated with various concentrations of compound 14 for 24 hours at which time the SOD-1 levels were measured by densitometric scanning of immunoblots.

[3] = tested on: unweighting atrophy of the soleus muscle; test: Inhibition of unweighting atrophy of the soleus muscle in juvenile rats (muscle protein content); type: in vivo, rat; settings: for Protein, End (day 3 of unweighting) / Effect (%), change in protein content during day 3 of unweighting: Table 2; for Protein, End (day 3 of unweighting): 24 hours after in situ soleus injection at day 2 of unweighting, mersalyl 200 nM aqueous; for Protein, End (day 3 of unweighting) / Protein, Treatment (unweighted muscle): MCP inhibitor 1 mM in DMSO; for Effect (%), change in protein content during day 3 of unweighting: End versus Start (estimated day 2 content); for Effect (%) on unweighted muscle protein / Protein, Treatment (unweighted muscle): Table 3; for Effect (%) on unweighted muscle protein: Treatment versus Vehicle contralateral muscle; for Protein, Treatment (unweighted muscle): treated soleus, contralateral muscle received vehicle, mersalyl 200 nM
Experimental: The effect of several inhibitors on the unweighting atrophy of the soleus muscle in juvenile rats was determined. See Tischler, M. E. (1990) Metabolism 39/7: 756-763 (hereinafter "Tischler--1990") for a general discussion of the procedure.
Juvenile female Sprague-Dawley rates (80-90 g) were tail-cast, hind limb suspended as in Jetspers, S. R. and Tischler, M. E., (1984) J. Appl. Physiol. 57: 1472-1479. The animal's hind limbs were elevated above the floor of the cage with each animal housed individually. Animals had free access to food and water, and were weighed at the time of suspension and at time of termination. During the suspension period the animals were checked daily to ensure that their toes were not touching the floor of the cage, and that there was no swelling of the tail due to the cast.
Each experiment began with the suspension of 20 rats which were randomly divided into 4 groups of 5 animals each. Group A was suspended for just 2 days and provided baseline data to approximate the soleus muscle size in other animals suspended for longer times. Average body weights for the groups at the outset of the study were compared and used as a correction factor for body size differences. […] See Tischler--1990. At 2 days after unweighting commenced, an aqueous solution of mersalyl (200 nM; 4 μl/100 g initial body wt) was injected into one soleus, as described previously. The contralateral muscle was injected with a similar volume of 0.9% saline ("Vehicle"). The animals were maintained under Innovar-vet (10 μl/100 g body wt) tranquilization during the in situ injection procedure. After the injections, the animals were suspended for an additional 24 hours and the soleus was removed. Groups C and D for each experiment were used for testing each of two different embodiments of the disclosed compounds.
Animals were treated as in group B, except that 1 mM MCP inhibitor, contained in dimethysulfoxide (DMSO), was injected into the soleus of one leg and DMSO only into the contralateral soleus. Thus each experiment consisted of two control groups and the testing of MCP inhibitors of the invention. The completion of five such experiments with different pairs of inhibitors provided for an "n" value of 10 for testing each MCP inhibitor and with each tested in two different shipments of animals.
After the animal was sacrificed, the soleus was excised, trimmed of fat and connective tissue, and carefully weighed. The muscle was then homogenized in 10% trichloroacetic acid (TCA) and the precipitated protein pelleted by centrifugation. The pellet was then washed once with 10% TCA and once with ethanol:ether (1:1). The final pellet was solubilized in 4 ml of 1N sodium hydroxide. The sample was then analyzed for protein content by the biuret procedure, using albumin as a standard.
The effect of MCP inhibitors on total muscle protein content was examined primarily by paired comparison with the untreated contralateral muscle. The ratio of contents was calculated and then analyzed statistically by analysis of variance ("ANOVA"). The left leg was always the treated leg so that the protein content ratios could be compared to the non-treated control animals as well. In this way, a significant difference can be shown by comparing the protein content of the two legs, as well as the relative effectiveness of the tested MCP inhibitors. A paired student test was also performed for the effect of each separate treatment. The non-treated control data also provided an estimate of protein content of day 2. This allowed approximation of the protein changes over the 24 hours of treatment for each of the Groups B, C, and D.

Row | Structure (SMILES) | Effect on MHC-1 OVA processing [1] | Concentration giving maximal SOD-1 accumulation ([2]; 24 hours, FIG. 6) | Reduction of wild-type and mutant SOD-1 degradation ([2]; summary statement) | Accumulation of SOD-1 protein levels ([2]; various concentrations, 24 hours, FIG. 6) | Effect on turnover of the wild-type SOD-1 protein ([2]; wild-type SOD-1 cell line, dose response) | Protein, End (day 3 of unweighting) [3] [mg/muscle] | Effect (%), change in protein content during day 3 of unweighting [3] [%] | Effect (%) on unweighted muscle protein [3] [%] | Protein, Treatment (unweighted muscle) [3] [mg/muscle]
1 | CC(C)C[C@@H](C=O)NC(=O)[C@H](CCCNC(=N)N[N+](=O)[O-])NC(=O)C(CCCCCCCCC#N)C1CCCC1 (stereo partly drawn) [Compound 14, 10-cyano-2-cyclopentyldecanoyl-N^g-nitro-L-arginyl-L-leucinal] | effectively inhibit OVA processing | approximately 20 μM | reduces wild-type and mutant SOD-1 degradation in a dose-dependent manner | significant accumulations of SOD-1 protein levels | statistically significant effect | 6.4 | 0 | 7 | 6.4
2 | COC(=O)CCCCCCCC(C(=O)N[C@@H](CCCNC(=N)NS(=O)(=O)c1c(C)c(C)c2c(c1C)CCC(C)(C)O2)C(=O)N[C@H](C=O)CC(C)C)C1CCCC1 (stereo partly drawn) [Compound 20, 9-Methoxycarbonyl-2-cyclopentyl-nonanoyl-N^g-(2,2,5,7,8-pentamethylchroman-6-sulfonyl)-L-arginyl-L-leucinal] | effectively inhibit OVA processing | – | – | – | – | 6.2 | -4 | 5 | 6.2

Reference: US5990083A, “Multicatalytic protease inhibitors” (Cephalon, Inc., priority 1997, dated 1999)
